Data taken from PMC12624432, “Development of Novel ^18F‑Labeled Selective Orexin‑2 Receptor Radioligands for Positron Emission Tomography” (ACS Pharmacology & Translational Science, 2025).
“Also recorded” adds a separate entry of the source.

How the values were obtained:
[1] = test system: OX2R; test: OX2R binding affinity; conditions: for selectivity over OX1R: OX2R over OX1R; for selectivity (OX2R/OX1R): ratio of Ki OX1 to Ki OX2
[2] = In vitro tracer stability in saline; type: physicochemical; conditions: over the studied time intervals
Procedure: (§1) [^18F]1 and [^18F]2 were obtained in 24% and 53% decay-corrected radiochemical yields (RCYs) with molar activities of 53 GBq/μmol and 38 GBq/μmol, respectively. […] Furthermore, in vitro stability tests of [^18F]1 and [^18F]2 were conducted in saline, serums, and liver microsomes across species.

[3] = In vitro tracer stability in serum; type: in vitro ADME; conditions: mouse, rat, nonhuman primate and human serum
Procedure: as §1

[4] = In vitro tracer stability in liver microsomes; type: in vitro ADME; conditions: mouse, rat and human liver microsomes
Procedure: as §1
Figure S3. Stability of [ 18F]1 in liver microsomes. (A) Stability of [ 18F]1 in mouse liver microsome; (B) Stability of [18F]1 in rat liver microsome; (C) Stability of [ 18F]1 in human […]
Figure S4. Stability of [ 18F]2 in liver microsomes. (A) Stability of [ 18F]2 in mouse liver microsome; (B) Stability of [18F]2 in rat liver microsome; (C) Stability of [ 18F]2 in human […]
Figure S5. TACs of [ 18F]1 in the whole rat brain under baseline and blocking (elacridar, elacridar and EMPA, or elacridar and LSN2424100; elacridar in 5 mg/kg, EMPA and LSN2424100 in 1 mg/kg) conditions; All data are mean ± SD, n ≥ 3. […]

[5] = Radiometabolic analysis in plasma and brain; type: in vivo, SD rats; conditions: rat brain homogenate, 30 min postinjection
Procedure: According to a previous report, SD rats were euthanized 30 min after the administration of [^18F]1 or [^18F]2. The brain was collected, homogenized with cold MeCN and PBS, and centrifuged (14,000g, 5 min) at 4 °C. The supernatant was analyzed by HPLC, and both tracers and radiometabolites were collected and measured by a γ counter. The same procedure was conducted for plasma.

[6] = target: OX2R; parameters: method as in earlier work; conditions: no binding method in paper; compounds previously reported; read-out: K i/OX2; cited from earlier work
[7] = target: T1, OX2R (Rattus norvegicus, UniProt P56719); test: In vitro autoradiography on rat brain sections; type: binding; parameters: from tissue; host or cells: rat brain sections; conditions: blocking with EMPA, LSN2424100 or authentic reference compound, 10 μM, across regions
T1 sequence (P56719 1-460): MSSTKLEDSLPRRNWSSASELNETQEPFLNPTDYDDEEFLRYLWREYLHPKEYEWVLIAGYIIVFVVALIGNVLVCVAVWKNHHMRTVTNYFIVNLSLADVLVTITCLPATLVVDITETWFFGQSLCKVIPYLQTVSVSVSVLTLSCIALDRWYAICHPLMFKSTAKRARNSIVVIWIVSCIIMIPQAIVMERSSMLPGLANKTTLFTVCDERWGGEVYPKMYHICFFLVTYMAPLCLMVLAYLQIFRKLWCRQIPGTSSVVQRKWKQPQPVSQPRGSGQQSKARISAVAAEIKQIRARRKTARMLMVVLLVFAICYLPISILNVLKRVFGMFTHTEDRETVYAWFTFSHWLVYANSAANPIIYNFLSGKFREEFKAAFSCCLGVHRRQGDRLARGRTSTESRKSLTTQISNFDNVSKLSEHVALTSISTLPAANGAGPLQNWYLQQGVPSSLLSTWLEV
Procedure: According to a previous report, rat brain sections were incubated with Tris-HCl buffer (50 mM) and then with [^18F]1 or [^18F]2. In the blocking study, brain sections were incubated with the tracer in the presence of 1, 2, EMPA, or LSN2424100 (10 μM). Then the brain sections were washed with the cold buffer, dried, exposed to an imaging screen, and scanned with a Typhoon biomolecular imager.

[8] = target: T1, OX2R; test: Dynamic PET imaging in the rat brain; type: in vivo, Sprague–Dawley rats; parameters: from tissue; host or cells: brain of living Sprague-Dawley rats; conditions: for tracer uptake reduction under blocking: EMPA or LSN2424100 1 mg/kg after elacridar pretreatment, all brain regions; for peak SUV in brain: baseline, 0.5 min postinjection; for increase in SUV0–60 min with elacridar: co-administration of elacridar 5 mg/kg (P-gp/BCRP inhibitor), across brain regions
Procedure: PET imaging was performed according to previous reports , with minor modifications. [^18F]1 or [^18F]2 (40 μCi) was administered via the tail vein of SD rats, and dynamic scans were performed with a G8 PET scanner (Sofie) for 60 min. In the blocking study, elacridar (5 mg/kg) and OX2R antagonist (EMPA or LSN2424100, 1 mg/kg) were injected at 20 and 10 min before the administration of the tracer, respectively.

[9] = Experimental log D; type: physicochemical
Excerpt: 1 Representative Pharmacological and Physicochemical Properties of 1 and 2 | column: compound 1; compound 2

[10] = target: sigma-2 (Homo sapiens, UniProt Q5BJF2); test: Off-target binding, sigma-2; conditions: read-out: K i sigma-2
Procedure: (§2) Target selectivity over OX1R exceeded 600-fold for both compounds, satisfying a key prerequisite for selective OX2R imaging. […] CNS penetration was further predicted using Percepta, yielding log BB values of −0.14 and −0.36 for compounds 1 and 2, respectively, well above the empirical threshold for BBB permeability (log BB > −1). Additionally, off-target binding screening was conducted for compounds 1 and 2 toward 59 major CNS targets (Figures S1 and S2).
(§3) 1. Supporting Figures and Tables
(§4) Figure S1. Off-target pharmacological evaluation of compound 1. Initial screening of 59 major CNS targets at a concentration of 1 at 10 μM, including common GPCRs, enzymes, ion channels, and transporters. All data are mean ± SD (n ≥ 3).
(§5) Figure S2. Off-target pharmacological evaluation of compound 2. Initial screening of 59 major CNS targets at a concentration of 2 at 10 μM, including common GPCRs, enzymes, […]

[11] = target: NR2B receptors (Homo sapiens, UniProt Q05586+Q13224); test: Off-target binding, NR2B; conditions: read-out: K i NR2B
Procedure: as §2, §3, §4, §5

[12] = test system: 59 major CNS targets (GPCRs, enzymes, ion channels, transporters); test: Off-target binding screening of 59 major CNS targets; conditions: 10 μM; significant = > 50%; except sigma 2 (and NR2B for 1)
Procedure: as §2, §3, §4, §5

[13] = target: OX1R; parameters: method as in earlier work; conditions: no binding method in paper; compounds previously reported; read-out: K i/OX1; cited from earlier work
[14] = test system: OX2R; parameters: method as in not given; conditions: introduction, literature statement; ref not given; cited from earlier work

sigma-2, sequence (Q5BJF2 whole entry): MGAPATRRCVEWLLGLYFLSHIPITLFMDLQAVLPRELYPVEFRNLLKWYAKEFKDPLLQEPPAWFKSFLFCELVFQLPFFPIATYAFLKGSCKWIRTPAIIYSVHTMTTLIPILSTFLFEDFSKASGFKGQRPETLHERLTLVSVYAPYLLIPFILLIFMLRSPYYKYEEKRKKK
NR2B receptors, sequence (Q13224 27-1484, other chains not shown): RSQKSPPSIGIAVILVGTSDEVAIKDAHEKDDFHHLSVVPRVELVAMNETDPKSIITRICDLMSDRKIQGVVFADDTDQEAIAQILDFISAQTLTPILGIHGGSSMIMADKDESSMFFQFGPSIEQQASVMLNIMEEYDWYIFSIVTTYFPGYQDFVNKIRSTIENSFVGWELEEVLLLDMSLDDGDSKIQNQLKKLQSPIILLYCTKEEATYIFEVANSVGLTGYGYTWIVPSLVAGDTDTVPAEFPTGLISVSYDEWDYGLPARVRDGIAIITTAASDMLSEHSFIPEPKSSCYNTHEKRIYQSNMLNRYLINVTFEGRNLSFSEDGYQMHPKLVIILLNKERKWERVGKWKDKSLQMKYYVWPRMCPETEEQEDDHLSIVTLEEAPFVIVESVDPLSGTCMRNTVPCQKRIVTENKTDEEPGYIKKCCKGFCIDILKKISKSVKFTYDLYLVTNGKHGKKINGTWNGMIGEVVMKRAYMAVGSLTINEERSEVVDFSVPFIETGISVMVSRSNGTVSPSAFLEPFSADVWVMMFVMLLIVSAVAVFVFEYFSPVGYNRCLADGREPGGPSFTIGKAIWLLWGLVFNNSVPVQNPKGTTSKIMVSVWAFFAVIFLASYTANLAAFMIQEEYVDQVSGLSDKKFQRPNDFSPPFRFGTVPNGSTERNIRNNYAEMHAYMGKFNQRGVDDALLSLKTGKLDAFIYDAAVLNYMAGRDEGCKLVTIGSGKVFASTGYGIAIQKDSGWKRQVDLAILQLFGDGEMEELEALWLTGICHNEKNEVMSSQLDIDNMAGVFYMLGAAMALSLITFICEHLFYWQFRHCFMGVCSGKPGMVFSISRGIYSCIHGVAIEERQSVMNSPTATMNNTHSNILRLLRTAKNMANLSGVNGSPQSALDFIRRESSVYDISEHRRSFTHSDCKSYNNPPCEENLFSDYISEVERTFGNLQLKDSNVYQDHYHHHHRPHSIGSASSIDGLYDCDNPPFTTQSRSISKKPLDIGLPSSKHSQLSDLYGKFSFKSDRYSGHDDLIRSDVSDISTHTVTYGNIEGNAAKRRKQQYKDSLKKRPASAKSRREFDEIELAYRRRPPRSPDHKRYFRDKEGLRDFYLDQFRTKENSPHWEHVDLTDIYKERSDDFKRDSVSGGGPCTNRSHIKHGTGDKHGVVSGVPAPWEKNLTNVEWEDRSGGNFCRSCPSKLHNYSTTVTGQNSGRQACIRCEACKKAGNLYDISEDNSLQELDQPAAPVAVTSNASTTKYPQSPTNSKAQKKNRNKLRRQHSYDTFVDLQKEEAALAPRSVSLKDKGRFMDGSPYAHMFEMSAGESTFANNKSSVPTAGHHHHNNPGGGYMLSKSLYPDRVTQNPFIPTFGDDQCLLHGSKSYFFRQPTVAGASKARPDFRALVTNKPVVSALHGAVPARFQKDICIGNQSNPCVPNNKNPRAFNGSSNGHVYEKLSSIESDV

Molecule	selectivity over OX1R [1]	radiometabolites in saline (stability) [2]	radiometabolites in serum (stability) [3]	radiometabolites in liver microsomes (stability) [4]	intact parent tracer in brain [5]	Ki [6] [nM]	autoradiography signal reduction under blocking [7]	tracer uptake reduction under blocking [8]	peak SUV in brain [8]	increase in SUV0–60 min with elacridar [8] [%]	selectivity (OX2R/OX1R) [1]	logD [9]	Ki [10] [nM]	Ki [11] [nM]	off-target binding toward 59 major CNS targets [12]	Ki [13] [nM]	selectivity for OX2R [14] [fold]
Cc1c(C#N)ccnc1O[C@@H]1CC[C@@H](C)N(C(=O)c2cc([18F])ccc2-c2nccs2)C1 [[^18F]1]	> 600 fold	No appreciable radiometabolites were detected	No appreciable radiometabolites were detected	No appreciable radiometabolites were detected	ca. 90%	0.1	54–84%	40–43%	2.1	> 100							
CC1CCC(Oc2cc(C#N)ccn2)CN1C(=O)c1cc([18F])ccc1-c1ncccn1 (stereo not drawn) [[^18F]2]	> 600 fold	No appreciable radiometabolites were detected	No appreciable radiometabolites were detected	No appreciable radiometabolites were detected	ca. 90%	1	51–71%	23–46%	1.8	> 100							
Cc1c(C#N)ccnc1O[C@@H]1CC[C@@H](C)N(C(=O)c2cc(F)ccc2-c2nccs2)C1 [compound 1, 2-(((3R,6R)-1-(5-Fluoro-2-(thiazol-2-yl)benzoyl)-6-methylpiperidin-3-yl)oxy)-3-methylisonicotinonitrile]	exceeded 600 fold					0.1					890	3.43	2680	9480	No off-target activity was observed; also recorded: No significant off-target	89	
C[C@@H]1CC[C@@H](Oc2cc(C#N)ccn2)CN1C(=O)c1cc(F)ccc1-c1ncccn1 [compound 2, 2-(((3R,6R)-1-(5-Fluoro-2-(pyrimidin-2-yl)benzoyl)-6-methylpiperidin-3-yl)oxy)isonicotinonitrile]	exceeded 600 fold					1					658	2.54	4730		No off-target activity was observed; also recorded: No significant off-target	658	
orexin B: endogenous neuropeptide ligand of the orexin receptors, selective for OX2R																	> 10
